In paper PMC5052559, “A fragment-based approach applied to a highly flexible target: Insights and challenges towards the inhibition of HSP70 isoforms” (Scientific Reports, 2016):
Each block holds one molecule with its values, some of them ahead of it.

Tests used:
WT HSC70-NBD = molecular target: T1, WT HSC70-NBD (Homo sapiens, UniProt P11142); experiment: SPR binding to wild-type HSC70-NBD; settings: for Kd / Kd WT HSC70-NBD: 25 °C; for LE (ligand efficiency): calculated using the SPR Kd on WT HSC70-NBD; for increase in affinity compared to parent fragment: SPR Kd, 23 vs 10, 24 vs 19
T1 construct: WT HSPA8 (HSC70) residues 1 to 381; GST (N, cleaved yes); made in house; host or cells: E. coli BL21-AI (expressed as described for FL-HSP72)
Method: (§1) SPR experiments were carried out using a Biacore T200 (GE Healthcare) at 25 °C. Amine coupling chemistry was used to immobilise the HSC70 NBD domain and S275W, S275F and S275A HSC70-NBD mutant proteins on a carboxymethyl-5′-dextran (CM5) sensor chip. The chip’s surface was activated with a 10 min injection of a 1:1 mixture of 100 mM N-hydroxysuccinimide and 400 mM 1-ethyl-3-(3-dimethylaminopropyl)-carbodiimide. […] The remaining activated groups on the surface were blocked with a 7 min injection of 1 M ethanolamine at pH 8.5. […] Flow cell one was left unmodified as the reference surface.
(§2) In addition, a DMSO correction curve, prepared as described in the GE manual, was used to correct the effects of the solvent on signal intensity. Raw SPR data from the single point screen was processed and analysed using Pipeline Pilot version 8.0.1.500[37]. Firstly, the reported binding level for each fragment was corrected by subtraction of the buffer blank.
(§3) The initial fragment hits were further investigated in a three-point concentration-response experiment against freshly immobilised WT HSC70-NBD and the S275W HSC70-NBD mutants using the same experimental protocol as for the primary screen. Compound dilutions of 50, 100 and 200 μM were generated using the ECHO 550.

S275W HSC70-NBD = molecular target: T2, S275W HSC70-NBD (Homo sapiens, UniProt P11142, S275W); experiment: SPR binding to S275W HSC70-NBD mutant; settings: single measurement
T2 construct: WT HSPA8 (HSC70) residues 1 to 381; GST (N, cleaved yes); made in house; host or cells: E. coli BL21-AI (expressed as described for FL-HSP72)
Method: as §1, §2, §3

[1] = SPR, mean ± standard deviation or standard error, triplicate unless marked duplicate/single
[2] = SPR, mean ± SD, No binding = binding level ≤10RU at 1mM

T2 sequence (P11142 1-381 S275W): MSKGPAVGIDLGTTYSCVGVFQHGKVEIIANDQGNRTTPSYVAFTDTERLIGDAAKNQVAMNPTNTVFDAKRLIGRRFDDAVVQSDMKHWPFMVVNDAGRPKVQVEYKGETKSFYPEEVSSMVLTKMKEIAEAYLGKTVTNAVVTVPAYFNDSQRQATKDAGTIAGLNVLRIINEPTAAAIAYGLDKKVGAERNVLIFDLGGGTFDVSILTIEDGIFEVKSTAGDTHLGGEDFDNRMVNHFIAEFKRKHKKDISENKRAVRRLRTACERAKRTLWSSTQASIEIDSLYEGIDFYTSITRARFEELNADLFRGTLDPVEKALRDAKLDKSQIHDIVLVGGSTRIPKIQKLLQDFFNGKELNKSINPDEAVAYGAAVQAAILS
T1 sequence (P11142 1-381): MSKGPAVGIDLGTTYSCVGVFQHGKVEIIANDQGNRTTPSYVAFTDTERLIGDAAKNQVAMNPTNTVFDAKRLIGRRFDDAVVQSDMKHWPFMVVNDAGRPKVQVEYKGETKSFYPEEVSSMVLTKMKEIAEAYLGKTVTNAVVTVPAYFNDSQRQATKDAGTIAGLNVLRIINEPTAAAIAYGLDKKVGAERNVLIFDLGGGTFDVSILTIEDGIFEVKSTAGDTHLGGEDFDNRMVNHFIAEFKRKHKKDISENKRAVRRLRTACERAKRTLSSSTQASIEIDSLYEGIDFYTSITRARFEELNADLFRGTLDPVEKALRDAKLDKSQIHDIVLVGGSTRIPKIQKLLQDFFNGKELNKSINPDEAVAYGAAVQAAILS

- Kd (WT HSC70-NBD; [1]): 3500 ± 600 µM
Structure (SMILES): CN1N=C(N)c2c[nH]c3ncnc1c23 [Compound 3]

- Kd (WT HSC70-NBD; [2]): 223 µM
- LE (ligand efficiency) (WT HSC70-NBD): 0.18
Structure (SMILES): Nc1nc2c(ncn2[C@@H]2O[C@H](COP(=O)(O)OP(=O)(O)O)[C@@H](O)[C@H]2O)c(=O)[nH]1 [GDP, reference compound]

- Kd (WT HSC70-NBD; [1]): 370 µM
- LE (ligand efficiency) (WT HSC70-NBD): 0.17
- Kd S275W HSC70-NBD (S275W HSC70-NBD): No binding
Structure (SMILES): OC[C@H]1C[C@@H](Nc2ncnc3cccc(OCc4ccccc4)c23)[C@H](O)[C@@H]1O [Compound 28]

- increase in affinity compared to parent fragment (WT HSC70-NBD): 7 fold
- Kd (WT HSC70-NBD; [2]): 310 ± 100 µM
Structure (SMILES): OC[C@H]1C[C@@H](Nc2ncnc3ccccc23)[C@H](O)[C@@H]1O [Compound 23]

- increase in affinity compared to parent fragment (WT HSC70-NBD): three-fold
- Kd (WT HSC70-NBD; [1]): 250 µM
Structure (SMILES): COc1cc2ncnc(N[C@@H]3C[C@H](CO)[C@@H](O)[C@H]3O)c2cc1OC [Compound 24]

- Kd (WT HSC70-NBD; [1]): 2000 µM
- LE (ligand efficiency) (WT HSC70-NBD): 0.10
- Kd (S275W HSC70-NBD): 2000 µM
Structure (SMILES): N#Cc1ccc(COC[C@H]2C[C@@H](Nc3ncnc4cccc(OCc5ccccc5)c34)[C@H](O)[C@@H]2O)cc1 [Compound 29]

- Kd (WT HSC70-NBD; [1]): 2000 µM
Structure (SMILES): COc1cccc2c(N)ncnc12 [Compound 18]

- Kd WT HSC70-NBD (WT HSC70-NBD; [2]): No binding
Structure (SMILES): Cc1cn([C@H]2C[C@H](O)[C@@H](COP(=O)(O)OP(=O)(O)O)O2)c(=O)[nH]c1=O [TDP, reference compound]

- Kd (WT HSC70-NBD; [1]): 850 µM
- LE (ligand efficiency) (WT HSC70-NBD): 0.14
- Kd (S275W HSC70-NBD): 5000 µM
Structure (SMILES): OC[C@H]1C[C@@H](Nc2ncnc3cccc(OCc4ccc(Cl)c(Cl)c4)c23)[C@H](O)[C@@H]1O [Compound 27]

- Kd (WT HSC70-NBD; [1]): 2900 µM
Structure (SMILES): Cc1cccc2c(N)ncnc12 [Compound 14]

- Kd (WT HSC70-NBD; [1]): 4800 ± 1100 µM
Structure (SMILES): CNc1ncnc2ccccc12 [Compound 20]

- Kd WT HSC70-NBD (WT HSC70-NBD; [2]): No binding
Structure (SMILES): Nc1ncnc2[nH]cnc12 [Compound 5, adenine, reference compound]

- Kd (WT HSC70-NBD; [1]): 1040 µM
Structure (SMILES): COc1cccc2ncnc(N[C@@H]3C[C@H](CO)[C@@H](O)[C@H]3O)c12 [Compound 26]

- Kd (WT HSC70-NBD; [1]): 830 µM
Structure (SMILES): COc1cc2ncnc(N)c2cc1OC [Compound 19]

- Kd WT HSC70-NBD (WT HSC70-NBD; [2]): No binding
Structure (SMILES): Nc1ccn([C@@H]2O[C@H](COP(=O)(O)OP(=O)(O)O)[C@@H](O)[C@H]2O)c(=O)n1 [CDP, reference compound]

Structure (SMILES): Nc1ncnc2c1nc(N)n2[C@@H]1O[C@H](CO)[C@@H](O)[C@H]1O [Compound 4, 8-aminoadenosine, reference compound]
- Kd (WT HSC70-NBD; [2]): 8 µM
- LE (ligand efficiency) (WT HSC70-NBD): 0.35

- Kd WT HSC70-NBD (WT HSC70-NBD; [2]): No binding
Structure (SMILES): O=c1ccn([C@@H]2O[C@H](COP(=O)(O)OP(=O)(O)O)[C@@H](O)[C@H]2O)c(=O)[nH]1 [UDP, reference compound]

- Kd (WT HSC70-NBD; [1]): 830 µM
Structure (SMILES): COc1cccc2ncnc(N)c12 [Compound 15]

- Kd (WT HSC70-NBD; [1]): 2100 µM
Structure (SMILES): Nc1ncnc2ccccc12 [Compound 10]

- Kd (WT HSC70-NBD; [1]): 850 µM
Structure (SMILES): COc1ccc2c(N)ncnc2c1 [Compound 17]

- Kd (WT HSC70-NBD; [1]): 12000 µM
Structure (SMILES): Cc1cccc2ncnc(N)c12 [Compound 12]

- Kd (WT HSC70-NBD; [2]): 2100 µM
- LE (ligand efficiency) (WT HSC70-NBD): 0.34
Structure (SMILES): Nc1nc2ncnc(N)c2[nH]1 [Compound 6, 8-aminoadenine, reference compound]

- Kd (WT HSC70-NBD; [1]): 1000 µM
Structure (SMILES): COc1ccc2ncnc(N)c2c1 [Compound 16, 6-methoxy 4-aminoquinazoline]

- Kd (WT HSC70-NBD; [1]): 800 µM
Structure (SMILES): Cc1ccc2c(N)ncnc2c1 [Compound 13, 7-methyl 4-aminoquinazoline]

- binding to WT HSC70-NBD (in words) (WT HSC70-NBD; SPR): no detectable affinity
Structure (SMILES): Cc1nc(N)c2ccccc2n1 [Compound 11]
